The text below walks through data of patent publication US10597380B2, “Pyridazinone-based broad spectrum anti-influenza inhibitors” (Hoffmann-La Roche Inc., priority 2017, dated 2020).

In general, IC50 refers to the concentration that inhibits the measured activity by half.

The assay concerns Influenza A/WSN/33-Luciferase virus. Description: microbe, parasite or virus in culture. Particulars: A549, 72 h, luciferase signal three days later, read-out: IC50 antiviral activity (Luciferase reporter assay). In kind it is cell-based.

In the case of `CN1CCc2c(Nc3cccn(C)c3=O)nn(-c3ccc(OC(F)(F)F)cc3)c(=O)c2C1` [Example 132, 6-Methyl-1-[(1-methyl-2-oxo-3-pyridyl)amino]-3-[4-(trifluoromethoxy)phenyl]-7,8-dihydro-5H-pyrido[3,4-d]pyridazin-4-one], the IC50 is 87 nM. In the case of `CN(C)C(=O)C(C)(C)Cn1cccc(Nc2nn(-c3ccc(OC(F)(F)F)cc3)c(=O)c3ccccc23)c1=O` [Example 100, N,N,2,2-tetramethyl-3-[2-oxo-3-[[4-oxo-3-[4-(trifluoromethoxy)phenyl]phthalazin-1-yl]amino]-1-pyridyl]propanamide] it was 36 nM; in that of `O=c1c(Nc2nn(-c3ccc(OC(F)(F)F)cc3)c(=O)c3c2CCC3)cccn1CC1CCCN1` (stereo not shown) [Example 131, 1-[[2-Oxo-1-(pyrrolidin-2-ylmethyl)-3-pyridyl]amino]-3-[4-(trifluoromethoxy)phenyl]-6,7-dihydro-5H-cyclopenta[d]pyridazin-4-one], 30 nM. For `Cc1cc(Nc2nn(-c3ccc(OC(F)(F)F)cc3)c(=O)c3c2CCC3)c(=O)n(C)c1` [Example 32, 1-[(1,5-dimethyl-2-oxo-3-pyridyl)amino]-3-[4-(trifluoromethoxy)phenyl]-6,7-dihydro-5H-cyclopenta[d]pyridazin-4-one] the value was 12 nM; for `CN(C)C(=O)CCCn1cccc(Nc2nn(-c3ccc(OC(F)(F)F)cc3)c(=O)c3ccccc23)c1=O` [Example 98, N,N-dimethyl-4-[2-oxo-3-[[4-oxo-3-[4-(trifluoromethoxy)phenyl]phthalazin-1-yl]amino]-1-pyridyl]butanamide], 10 nM; for `CN(C)C(=O)COCCn1cccc(Nc2nn(-c3ccc(OC(F)(F)F)cc3)c(=O)c3c2CCC3)c1=O` [Example 108, N,N-dimethyl-2-[2-[2-oxo-3-[[4-oxo-3-[4-(trifluoromethoxy)phenyl]-6,7-dihydro-5H-cyclopenta[d]pyridazin-1-yl]amino]-1-pyridyl]ethoxy]acetamide], 29 nM. For `CN(C)Cc1ccc2c(Nc3cccn(C)c3=O)nn(-c3ccc(OC(F)(F)F)cc3)c(=O)c2c1` [Example 144, 7-[(Dimethylamino)methyl]-4-[(1-methyl-2-oxo-3-pyridyl)amino]-2-[4-(trifluoromethoxy)phenyl]phthalazin-1-one] the value was 625 nM; for `Cn1cccc(Nc2nn(-c3ccc(OC(F)(F)F)cc3)c(=O)c3c2CN(C=O)CC3)c1=O` [Example 154, 4-[(1-Methyl-2-oxo-3-pyridyl)amino]-1-oxo-2-[4-(trifluoromethoxy)phenyl]-7,8-dihydro-5H-pyrido[3,4-d]pyridazine-6-carbaldehyde], 144 nM. On to `CNCCn1cncc(Nc2nn(-c3ccc(OC(F)(F)F)cc3)c(=O)c3c2CCC3)c1=O` [Example 128, 1-[[1-[2-(Methylamino)ethyl]-6-oxo-pyrimidin-5-yl]amino]-3-[4-(trifluoromethoxy)phenyl]-6,7-dihydro-5H-cyclopenta[d]pyridazin-4-one], for which the IC50 was found to be 92 nM. For `O=c1c(Nc2nn(-c3ccc(OC(F)(F)F)cc3)c(=O)c3c2CCC3)cccn1CCn1ccnc1` [Example 40, 1-[[1-(2-imidazol-1-ylethyl)-2-oxo-3-pyridyl]amino]-3-[4-(trifluoromethoxy)phenyl]-6,7-dihydro-5H-cyclopenta[d]pyridazin-4-one] the value was 100 nM.

For `COCCOc1cccc2c(=O)n(-c3ccc(OC(F)(F)F)cc3)nc(Nc3cccn(C)c3=O)c12` [Example 138, 5-(2-Methoxyethoxy)-4-[(1-methyl-2-oxo-3-pyridyl)amino]-2-[4-(trifluoromethoxy)phenyl]phthalazin-1-one], the IC50 came to 110 nM. In the case of `CC(=O)N1CCc2c(c(Nc3cncn(C)c3=O)nn(-c3ccc(OC(F)(F)F)cc3)c2=O)C1` [Example 151, 6-Acetyl-4-[(1-methyl-6-oxo-pyrimidin-5-yl)amino]-2-[4-(trifluoromethoxy)phenyl]-7,8-dihydro-5H-pyrido[3,4-d]pyridazin-1-one] it was 372 nM. For `CNC(=O)CCCn1cccc(Nc2nn(-c3ccc(OC(F)(F)F)cc3)c(=O)c3ccccc23)c1=O` [Example 97, N-methyl-4-[2-oxo-3-[[4-oxo-3-[4-(trifluoromethoxy)phenyl]phthalazin-1-yl]amino]-1-pyridyl]butanamide] the value was 9 nM; for `Cn1cccc(Nc2nn(-c3ccc(OC(F)(F)F)cc3)c(=O)c3c2CCC3)c1=O` [Example 28, 1-[(1-methyl-2-oxo-3-pyridyl)amino]-3-[4-(trifluoromethoxy)phenyl]-6,7-dihydro-5H-cyclopenta[d]pyridazin-4-one], 8 nM. For `CN1CCc2c(c(Nc3cccn(C)c3=O)nn(-c3ccc(OC(F)(F)F)cc3)c2=O)C1` [Example 133, 6-Methyl-4-[(1-methyl-2-oxo-3-pyridyl)amino]-2-[4-(trifluoromethoxy)phenyl]-7,8-dihydro-5H-pyrido[3,4-d]pyridazin-1-one] the value was 538 nM; for `O=C(O)[C@H]1CCCN1CCn1cccc(Nc2nn(-c3ccc(OC(F)(F)F)cc3)c(=O)c3ccccc23)c1=O` [Example 116, (2R)-1-[2-[2-oxo-3-[[4-oxo-3-[4-(trifluoromethoxy)phenyl]phthalazin-1-yl]amino]-1-pyridyl]ethyl]pyrrolidine-2-carboxylic acid], 261 nM; for `COC(=O)Cn1cccc(Nc2nn(-c3ccc(OC(F)(F)F)cc3)c(=O)c3c2CCCC3)c1=O` [Example 24, methyl 2-[2-oxo-3-[[4-oxo-3-[4-(trifluoromethoxy)phenyl]-5,6,7,8-tetrahydrophthalazin-1-yl]amino]-1-pyridyl]acetate], 22 nM.

For `Cn1cccc(Nc2nn(-c3ccc(OC(F)(F)F)cc3)c(=O)c3c2CCN(C=O)C3)c1=O` [Example 155, 1-[(1-Methyl-2-oxo-3-pyridyl)amino]-4-oxo-3-[4-(trifluoromethoxy)phenyl]-7,8-dihydro-5H-pyrido[3,4-d]pyridazine-6-carbaldehyde], the IC50 came to 86 nM. For `CNC(=O)N1CCc2c(c(Nc3cccn(C)c3=O)nn(-c3ccc(OC(F)(F)F)cc3)c2=O)C1` [Example 160, N-Methyl-4-[(1-methyl-2-oxo-3-pyridyl)amino]-1-oxo-2-[4-(trifluoromethoxy)phenyl]-7,8-dihydro-5H-pyrido[3,4-d]pyridazine-6-carboxamide] the value was 86 nM. As for `O=c1c(Nc2nn(-c3ccc(OC(F)(F)F)cc3)c(=O)c3c2CCC3)cncn1CCN1CC(O)C1` [Example 169, 1-[[1-[2-(3-Hydroxyazetidin-1-yl)ethyl]-6-oxo-pyrimidin-5-yl]amino]-3-[4-(trifluoromethoxy)phenyl]-6,7-dihydro-5H-cyclopenta[d]pyridazin-4-one], the IC50 is 307 nM. In the case of `Cn1cccc(Nc2nn(-c3ccc(C(C)(C)O)cc3)c(=O)c3ccccc23)c1=O` [Example 162, 2-[4-(1-Hydroxy-1-methyl-ethyl)phenyl]-4-[(1-methyl-2-oxo-3-pyridyl)amino]phthalazin-1-one] it was 1400 nM; in that of `CC(O)c1ccc2c(Nc3cccn(C)c3=O)nn(-c3ccc(OC(F)(F)F)cc3)c(=O)c2c1` (stereo not shown) [Example 140, 7-(1-Hydroxyethyl)-4-[(1-methyl-2-oxo-3-pyridyl)amino]-2-[4-(trifluoromethoxy)phenyl]phthalazin-1-one], 32 nM; in that of `O=C(O)C1CN(CCn2cccc(Nc3nn(-c4ccc(OC(F)(F)F)cc4)c(=O)c4c3CCC4)c2=O)CCO1` (stereo not shown) [Example 122, 4-[2-[2-oxo-3-[[4-oxo-3-[4-(trifluoromethoxy)phenyl]-6,7-dihydro-5H-cyclopenta[d]pyridazin-1-yl]amino]-1-pyridyl]ethyl]morpholine-2-carboxylic acid], 3710 nM. In the case of `CN(C)CCn1cncc(Nc2nn(-c3ccc(OC(F)(F)F)cc3)c(=O)c3c2CCCC3)c1=O` [Example 25, 4-[[1-[2-(dimethylamino)ethyl]-6-oxo-pyrimidin-5-yl]amino]-2-[4-(trifluoromethoxy)phenyl]-5,6,7,8-tetrahydrophthalazin-1-one] it was 14 nM; in that of `NCCn1cccc(Nc2nn(-c3ccc(OC(F)(F)F)cc3)c(=O)c3c2CCC3)c1=O` [Example 130, 1-[[1-(2-Aminoethyl)-2-oxo-3-pyridyl]amino]-3-[4-(trifluoromethoxy)phenyl]-6,7-dihydro-5H-cyclopenta[d]pyridazin-4-one], 62 nM.

Turning to `COC(=O)N1CCc2c(Nc3cccn(C)c3=O)nn(-c3ccc(OC(F)(F)F)cc3)c(=O)c2C1` [Example 153, Methyl 1-[(1-methyl-2-oxo-3-pyridyl)amino]-4-oxo-3-[4-(trifluoromethoxy)phenyl]-7,8-dihydro-5H-pyrido[3,4-d]pyridazine-6-carboxylate], the IC50 amounted to 61 nM.

For `Cn1cc(Cl)cc(Nc2nn(-c3ccc(OC(F)(F)F)cc3)c(=O)c3c2CCC3)c1=O` [Example 33, 1-[(5-chloro-1-methyl-2-oxo-3-pyridyl)amino]-3-[4-(trifluoromethoxy)phenyl]-6,7-dihydro-5H-cyclopenta[d]pyridazin-4-one], the half-maximal inhibitory concentration (IC50) came out at 6 nM. For `CC(C)(C)c1ccc(-n2nc(Nc3ccc[nH]c3=O)c3ccccc3c2=O)cc1` [Example 15, 2-(4-tert-butylphenyl)-4-[(2-oxo-1H-pyridin-3-yl)amino]phthalazin-1-one] the value was 132 nM; for `COc1ccc(-n2nc(Nc3cccn(C)c3=O)c3c(c2=O)CCC3)cn1` [Example 56, 3-(6-methoxy-3-pyridyl)-1-[(1-methyl-2-oxo-3-pyridyl)amino]-6,7-dihydro-5H-cyclopenta[d]pyridazin-4-one], 278 nM. For `CC(O)CN1CCc2c(Nc3cccn(C)c3=O)nn(-c3ccc(OC(F)(F)F)cc3)c(=O)c2C1` (stereo not shown) [Example 145, 6-(2-Hydroxypropyl)-1-[(1-methyl-2-oxo-3-pyridyl)amino]-3-[4-(trifluoromethoxy)phenyl]-7,8-dihydro-5H-pyrido[3,4-d]pyridazin-4-one] the value was 129 nM; for `CNC(=O)N1CCc2c(Nc3cccn(C)c3=O)nn(-c3ccc(OC(F)(F)F)cc3)c(=O)c2C1` [Example 161, N-Methyl-1-[(1-methyl-2-oxo-3-pyridyl)amino]-4-oxo-3-[4-(trifluoromethoxy)phenyl]-7,8-dihydro-5H-pyrido[3,4-d]pyridazine-6-carboxamide], 112 nM.
